These results are taken from patent US12528808B2, “Therapy for erythropoietic protoporphyria (EPP) and X-linked protoporphyria (XLP)” (UNIVERSITY OF PITTSBURGH-OF THE COMMONWEALTH SYSTEM OF …, priority 2019, dated 2026).

Series [1] is described as follows: in vitro.
The target in series [2] is T1, ABCG2 (Homo sapiens, UniProt Q9UNQ0).
T1 construct: developed using the A549 cancer cell line; endogenous in cells; host or cells: A549 cancer cell line
T1 sequence (Q9UNQ0 1-655): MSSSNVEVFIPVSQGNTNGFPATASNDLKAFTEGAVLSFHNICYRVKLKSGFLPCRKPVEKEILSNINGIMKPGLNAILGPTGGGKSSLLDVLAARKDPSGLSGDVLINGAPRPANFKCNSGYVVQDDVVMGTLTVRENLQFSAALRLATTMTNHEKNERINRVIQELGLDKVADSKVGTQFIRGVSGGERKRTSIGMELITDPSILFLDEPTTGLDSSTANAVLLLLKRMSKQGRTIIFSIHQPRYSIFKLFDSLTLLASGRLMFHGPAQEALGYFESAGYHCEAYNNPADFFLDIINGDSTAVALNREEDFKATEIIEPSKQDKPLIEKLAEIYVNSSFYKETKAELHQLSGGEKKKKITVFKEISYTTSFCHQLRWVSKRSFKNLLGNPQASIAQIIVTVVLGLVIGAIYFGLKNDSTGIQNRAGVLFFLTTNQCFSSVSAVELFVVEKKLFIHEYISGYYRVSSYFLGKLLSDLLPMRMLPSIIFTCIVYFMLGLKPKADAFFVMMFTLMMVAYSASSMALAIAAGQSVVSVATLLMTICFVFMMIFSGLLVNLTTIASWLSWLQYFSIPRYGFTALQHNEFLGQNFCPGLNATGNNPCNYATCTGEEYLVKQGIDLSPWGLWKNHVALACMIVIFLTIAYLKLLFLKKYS
The series can be described thus: Protoporphyrin IX (PPIX)-based ABCG2 inhibition assay using the A549 cancer cell line. The conditions noted are these: read-out: IC50, the half maximal inhibitory concentration. From the text: A Protoporphyrin IX(PPIX)-based ABCG2 inhibition assay was developed using the A549 cancer cell line.

The nature of series [3]: Metabolic stability assay, incubation with human liver microsomes (HLM). Type of series: in vitro ADME. The conditions noted are these: remaining parent compound. As for the experimental part: Metabolic Stability Assay.
After the incubation (0-60 min), the remaining parent compounds were analyzed by UPLC-QTOFMS.

Some results are limits rather than exact numbers.

As to `COc1ccc2c3c([nH]c2c1)[C@H](CC(C)C)N1C(=O)[C@H](CCCOC(C)(C)C)NC(=O)[C@@H]1C3` [Compound K7, (3S,6S,12aS)-3-(3-(tert-butoxy)propyl)-6-isobutyl-9-methoxy-2,3,12,12a-tetrahydropyrazino[1′,2′:1,6]pyrido[3,4-b]indole-1,4(6H,7H)-dione], in series [1], the CC50 is more than 100000 nM. The IC50 in series [2] came out at 90 nM. In addition, in series [3] (30 min), the “HLM stability (% vs 0 min) 30 min” value amounted to 16%. In addition, the “HLM stability (% vs 0 min) 60 min” value in series [3] (60 min) is 9%.
